ChEMBL document CHEMBL1201862, “PubChem BioAssay data set” (2004)
The source made the active and inactive calls.

Tests used:
Cytochrome P450 2C19 = Cytochrome P450 2C19 (Homo sapiens, UniProt P33261); assay: Cytochrome panel assay with activity outcomes. Panel member name: p450-cyp2c19 Compounds with AC50 equal or less than 10 uM are considered active; format: functional; settings: read-out: AC50
Nonstructural protein 1 = Nonstructural protein 1 (Influenza A virus, UniProt Q194T2); format: functional, Influenza A virus (A/California/07/2009(H1N1))
Nonstructural protein 1, sequence (Q194T2 whole entry): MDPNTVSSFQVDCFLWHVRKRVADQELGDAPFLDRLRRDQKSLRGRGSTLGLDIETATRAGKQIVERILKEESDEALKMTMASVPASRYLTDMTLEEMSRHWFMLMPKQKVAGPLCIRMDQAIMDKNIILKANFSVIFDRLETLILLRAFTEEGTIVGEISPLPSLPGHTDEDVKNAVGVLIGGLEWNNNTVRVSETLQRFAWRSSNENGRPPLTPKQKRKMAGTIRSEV

Bcl-2-related protein A1 = target: T1, Bcl-2-related protein A1 (Mus musculus, UniProt Q07440); format: functional;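 note: confirmatory dose–response counterscreen on Bfl-1, used to check hits from a UBC13 polyubiquitin inhibitor campaign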
T1 sequence (Q07440 whole entry): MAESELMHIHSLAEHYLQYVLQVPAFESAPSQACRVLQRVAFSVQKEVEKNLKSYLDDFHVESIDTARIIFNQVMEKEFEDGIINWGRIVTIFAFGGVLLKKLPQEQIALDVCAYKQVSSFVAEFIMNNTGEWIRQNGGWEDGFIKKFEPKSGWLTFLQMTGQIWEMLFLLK

[1] = target: T2, Ubiquitin-conjugating enzyme E2 N (Homo sapiens, UniProt P61088); format: functional
T2 sequence (P61088 whole entry): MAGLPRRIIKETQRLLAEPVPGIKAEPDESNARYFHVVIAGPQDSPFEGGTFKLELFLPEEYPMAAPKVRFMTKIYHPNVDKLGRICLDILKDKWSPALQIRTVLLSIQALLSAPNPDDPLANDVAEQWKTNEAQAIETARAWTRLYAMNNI

[2] = target: T2, Ubiquitin-conjugating enzyme E2 N; format: functional; remark: listed apart in the source
[3] = Luminescence Cell-Based Dose Confirmation HTS to Identify Activators of 5'UTR Stem-Loop Driven Alpha-Synuclein mRNA Translation in H4 Neuroglioblastoma Cells. [Related pubchem assays: 1829 (Project Summary), 1814 (Primary HTS)]; format: functional
[4] = Luminescence Cell-Based Dose Response HTS to Identify Activators of Luciferase Translation or Activity in H4 […] Cells. [Related pubchem assays: 1829 (Project Summary), 1814 (Primary HTS)]; format: functional
H4 = assay: Luminescence Cell-Based Dose Response HTS to Identify Activators of 5'UTR Stem-Loop Driven Prion Protein mRNA Translation in H4 Neuroglioblastoma Cells. [Related pubchem assays: 1829 (Project Summary), 1814 (Primary HTS)]; format: functional; settings: Homo sapiens
[5] = cytotoxicity toward NIH3T3 fibroblasts, dose response, counter-screen, cell-based, ATP luminescence, mouse fibroblasts (AID 2010); format: functional;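 note: cells exposed to compound for about 90 hours before reading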
[6] = inhibitors of intracellular T. cruzi replication, confirmation, NIH3T3 host cells, beta-gal luminescence (AID 2044); format: functional, cell-based;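 note: intracellular parasites grown in NIH/3T3 mouse fibroblasts as host cells; luminescent beta-galactosidase reporter signal from transgenic T. cruzi replicating inside host cells; inhibitors lower the luminescence signal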
cells = format: functional
[7] = target: T3, Zinc finger protein mex-5 (Caenorhabditis elegans, UniProt Q9XUB2); assay: MEX-5/TCR-2 RNA interaction inhibitors, dose response, biochemical, C. elegans, fluorescence polarization (AID 1960)
T3 sequence (Q9XUB2 whole entry): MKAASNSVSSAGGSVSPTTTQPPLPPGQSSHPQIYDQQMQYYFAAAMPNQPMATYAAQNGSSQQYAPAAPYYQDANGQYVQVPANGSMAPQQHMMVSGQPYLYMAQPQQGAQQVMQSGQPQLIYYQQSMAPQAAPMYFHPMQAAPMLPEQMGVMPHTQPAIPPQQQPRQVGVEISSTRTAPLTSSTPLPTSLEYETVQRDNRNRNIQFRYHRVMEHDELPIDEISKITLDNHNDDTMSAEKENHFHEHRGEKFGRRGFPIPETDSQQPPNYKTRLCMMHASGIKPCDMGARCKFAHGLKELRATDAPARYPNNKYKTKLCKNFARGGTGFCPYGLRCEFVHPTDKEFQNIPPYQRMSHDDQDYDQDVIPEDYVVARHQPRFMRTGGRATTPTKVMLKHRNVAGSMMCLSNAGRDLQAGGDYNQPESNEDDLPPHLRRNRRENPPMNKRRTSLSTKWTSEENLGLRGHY

[8] = target: T4, RNA-binding protein pos-1 (Caenorhabditis elegans, UniProt G5EF15); assay: inhibitors of POS-1/mex-3 RNA binding, dose response, biochemical, fluorescence polarization (AID 1964);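 note: purified POS-1 fused to maltose binding protein made in E. coli; potency of compounds blocking POS-1 binding to fluorescent RNA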
T4 sequence (G5EF15 whole entry): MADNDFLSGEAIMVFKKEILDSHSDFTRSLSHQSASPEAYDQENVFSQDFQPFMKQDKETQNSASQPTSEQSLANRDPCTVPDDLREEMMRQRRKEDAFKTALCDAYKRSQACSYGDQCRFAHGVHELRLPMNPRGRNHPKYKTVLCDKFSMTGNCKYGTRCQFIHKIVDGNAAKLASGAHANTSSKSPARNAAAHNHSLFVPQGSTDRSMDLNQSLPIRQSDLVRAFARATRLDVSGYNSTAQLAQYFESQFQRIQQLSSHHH

[9] = target: T5, Rac GTPase-activating protein 1 (Homo sapiens, UniProt Q9H0H5); assay: MgcRacGAP GTPase-activating activity inhibitors, confirmation, biochemical, ADP Hunter fluorescence, primary and confirmatory (AID 624330); format: functional
T5 sequence (Q9H0H5 whole entry): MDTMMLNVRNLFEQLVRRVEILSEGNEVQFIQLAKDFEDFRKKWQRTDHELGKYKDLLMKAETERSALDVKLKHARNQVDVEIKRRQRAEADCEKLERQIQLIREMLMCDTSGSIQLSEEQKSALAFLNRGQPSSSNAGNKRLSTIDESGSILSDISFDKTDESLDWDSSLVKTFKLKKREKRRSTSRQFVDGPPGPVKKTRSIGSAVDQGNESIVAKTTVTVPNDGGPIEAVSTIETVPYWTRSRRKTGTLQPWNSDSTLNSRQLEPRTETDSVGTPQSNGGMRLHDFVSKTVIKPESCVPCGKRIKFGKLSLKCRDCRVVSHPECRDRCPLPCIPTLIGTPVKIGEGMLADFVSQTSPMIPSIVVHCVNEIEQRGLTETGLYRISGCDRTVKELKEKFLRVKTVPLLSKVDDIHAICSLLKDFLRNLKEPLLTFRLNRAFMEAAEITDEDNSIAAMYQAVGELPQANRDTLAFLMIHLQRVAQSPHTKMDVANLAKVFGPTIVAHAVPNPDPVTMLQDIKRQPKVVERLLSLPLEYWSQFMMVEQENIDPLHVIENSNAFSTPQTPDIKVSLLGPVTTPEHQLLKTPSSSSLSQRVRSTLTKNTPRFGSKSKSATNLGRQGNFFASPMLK

[10] = microbe, parasite or virus in culture; format: functional; settings: Mycobacterium tuberculosis
[11] = C. albicans growth with fluconazole, confirmation, fluorescence, retest (AID 2467); format: functional, cell-based
[12] = NIH-3T3 fibroblast cytotoxicity, dose response, cytotoxicity control, cell-based, fluorescence, Alamar Blue, secondary assay (AID 2327); format: functional;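 note: NIH-3T3 mouse fibroblasts cultured with fluconazole at 8 µg/mL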
[13] = inhibitors of HIV Env-driven cell fusion, dose response, cherry-pick (AID 652057); format: functional, cell-based
[14] = inhibitors of clade B AD8 Env fusion, dose response, cell-based, cherry-pick (AID 652062); format: functional;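 note: luciferase signal from cell-cell fusion driven by HIV-1 clade B AD8 Env; potency is for inhibitors of fusion seen as a drop in luminescence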

Cytochrome P450 2C19, sequence (P33261 whole entry): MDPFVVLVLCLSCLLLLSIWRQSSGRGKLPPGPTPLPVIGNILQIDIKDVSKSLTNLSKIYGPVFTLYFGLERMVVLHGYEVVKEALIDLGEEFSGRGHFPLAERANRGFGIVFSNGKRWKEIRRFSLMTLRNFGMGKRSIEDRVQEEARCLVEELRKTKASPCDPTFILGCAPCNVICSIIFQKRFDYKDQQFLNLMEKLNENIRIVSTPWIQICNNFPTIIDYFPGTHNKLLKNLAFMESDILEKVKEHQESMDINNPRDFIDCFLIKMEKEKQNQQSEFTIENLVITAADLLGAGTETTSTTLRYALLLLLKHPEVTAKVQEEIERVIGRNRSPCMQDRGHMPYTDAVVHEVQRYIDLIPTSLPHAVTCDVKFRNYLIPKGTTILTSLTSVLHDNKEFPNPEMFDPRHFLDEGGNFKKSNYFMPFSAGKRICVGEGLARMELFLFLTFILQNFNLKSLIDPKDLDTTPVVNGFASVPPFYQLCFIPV

SMILES: CCNc1nc(NCC)nc(N(C)N)n1
- AC50 (Cytochrome P450 2C19): 0.00141 µM (inconclusive)
- IC50 (Nonstructural protein 1): 12.7 µM (active)

SMILES: CC1(C)SC2C(C(=O)O)N=C(Cc3ccccc3)N2C1C(=O)O (stereo not drawn)
- IC50 (Nonstructural protein 1): 12.2 µM (active)

SMILES: O=C(CCCCn1c(=O)c2ccccc2n(Cc2ccccc2F)c1=O)NC1CCN(Cc2ccccc2)CC1
- IC50 (Bcl-2-related protein A1): > 20 µM (inactive)
- IC50 [1]: 5.47 µM (active)
- IC50 [2]: 11.3 µM (active)

SMILES: O=C(CNCc1ccccn1)Nc1cc(S(=O)(=O)N2CCCCC2)ccc1Cl
- IC50 (Nonstructural protein 1): 6.83 µM (active)

SMILES: COc1ccc(C(=O)N/N=C/C(=O)c2ccccc2)cc1
- EC50 [3]: 5.67 µM (active)
- EC50 [4]: 1.9 µM (active)
- EC50 (H4): 6.93 µM (active)

SMILES: COc1ccc(S(=O)(=O)N2CCN(C(=O)c3ccc([N+](=O)[O-])o3)CC2)cc1
- EC50 [5]: > 30 µM (not active)
- EC50 [3]: > 120 µM (not active)
- EC50 [4]: 7.51 µM (active)
- EC50 [6]: 0.103 µM (active)
- EC50 (H4): 7.96 µM (active)

SMILES: O=C(NNc1nc2cc3c(cc2s1)OCCO3)c1ccccc1
- IC50 (cells): 48.3 µM (active)

SMILES: CN(C)c1ccc(/C=C2\N=C(C(C)(C)C)OC2=O)cc1
- EC50 [7]: 22.3 µM (inconclusive)
- IC50 (cells): 11.3 µM (active)
- EC50 [8]: 7.17 µM (active)

SMILES: CN1CCN(/N=C/c2ccc(Cl)c(Cl)c2)CC1
- EC50 [3]: 34.9 µM (active)
- EC50 [4]: 31.7 µM (active)
- EC50 (H4): 2.16 µM (active)

SMILES: O=C1C(/C=N/CCCN2CCCC2=O)=C(O)c2ccccc21
- EC50 [3]: 14.8 µM (active)
- EC50 [4]: 5.6 µM (active)
- EC50 (H4): 12.9 µM (active)

SMILES: N=C1c2ccccc2CN1NC(=O)CC12CC3CC(CC(C3)C1)C2
- EC50 [7]: > 300 µM (not active)
- EC50 [8]: > 300 µM (not active)

SMILES: Cc1c(C(=O)OCC(=O)N2C(C)CCCC2C)oc2ccccc12 (stereo not drawn)
- EC50 [3]: 14.6 µM (active)
- EC50 [4]: 28.7 µM (active)
- EC50 (H4): 72.9 µM (active)

SMILES: CCn1cc(SCC(=O)N2CCOCC2)c2ccccc21
- EC50 [3]: 5.63 µM (active)
- EC50 [4]: 82.1 µM (active)
- EC50 (H4): > 120 µM (not active)

SMILES: Cc1ccccc1-c1nnc(SCc2ccccc2)o1
- EC50 [3]: 7.97 µM (active)
- EC50 [4]: 62.5 µM (active)

SMILES: Cc1nn(C(C)C(=O)N2CCOCC2)c(=O)c2nn(-c3ccccc3)c(C)c12 (stereo not drawn)
- EC50 [7]: > 300 µM (not active)
- EC50 [8]: > 300 µM (not active)

SMILES: Cc1cccc(NC(=O)c2cc3ccccc3o2)c1
- IC50 (cells): 40.5 µM (active)

SMILES: CCc1ccc(NC(=O)/C(C#N)=C/c2cc3ccc(C)cc3nc2N2CCOCC2)cc1
- EC50 [7]: 113 µM (active)
- EC50 [8]: 47.9 µM (active)

SMILES: CCOC(=O)N/N=C\c1ccc([N+](=O)[O-])s1
- IC50 (cells): 34 µM (active)

SMILES: O=C(CSCC(=O)N1CCOCC1)Nc1nc(-c2ccc3c(c2)OCO3)cs1
- EC50 [3]: 86.3 µM (active)
- EC50 [4]: 56.1 µM (active)
- EC50 (H4): > 120 µM (not active)

SMILES: CCN=C(S)N=Nc1c(O)[nH]c2ccc(C(C)C)cc12
- IC50 (Bcl-2-related protein A1): > 20 µM (inactive)
- IC50 [1]: 2.49 µM (active)
- IC50 [2]: 6.7 µM (active)

SMILES: CCOC(=O)/C(C#N)=C1/C(=O)N(Cc2ccccc2)c2ccccc21
- IC50 [9]: 61 µM (active)
- IC50 (Nonstructural protein 1): 99.6 µM (active)

SMILES: CCC1=NN2C(=N)/C(=C\c3ccc(OCCOc4ccccc4)c(OC)c3)C(=O)N=C2S1
- EC50 [3]: 9.45 µM (active)
- EC50 [4]: 8.4 µM (active)
- EC50 (H4): 5.43 µM (active)

SMILES: CC(C)c1ccc2c(c1)CCC1C(C)(CN)CCCC21C (stereo not drawn)
- CC50 [10]: 7.48 µM (active)
- EC50 [11]: > 38 µM (not active)
- EC50 [12]: 9.63 µM (inconclusive)

SMILES: COC(=O)c1ccc(-n2c(CCC(=O)O)ccc2-c2ccccc2)cc1
- EC50 [7]: > 300 µM (not active)
- EC50 [8]: > 300 µM (not active)

SMILES: COCCN=C(S)N=Nc1c(O)[nH]c2c(C)cc(C)cc12
- IC50 (Bcl-2-related protein A1): > 20 µM (inactive)
- IC50 [1]: 0.561 µM (active)
- IC50 [2]: 6.28 µM (active)

SMILES: CSC(S)=NCc1cccnc1
- CC50 [10]: 9.84 µM (active)
- EC50 [11]: 1.13 µM (active)
- EC50 [12]: > 160 µM (inactive)

SMILES: COc1cccc(NC(=O)N(C)C[C@@H]2OCc3ccccc3-c3c(n(C)c4ccccc34)C(=O)N([C@@H](C)CO)C[C@@H]2C)c1
- AC50 [13]: < 0.26 µM (active)
- AC50 [14]: < 0.26 µM (active)

SMILES: C=CCOc1ccc(CNc2ccc(NC(=O)CCC)cc2)cc1OCC
- IC50 (Nonstructural protein 1): > 100 µM (active)

SMILES: Cc1cccc(OCCCCc2c(C)n[nH]c2C)c1
- IC50 (cells): 9.67 µM (active)

SMILES: CCOc1ccc(-c2c(=O)n(OCc3ccc([N+](=O)[O-])cc3)c3ccccc3[n+]2[O-])cc1
- EC50 [3]: > 120 µM (not active)
- EC50 [4]: > 120 µM (not active)
- EC50 (H4): > 120 µM (not active)

SMILES: Cc1ccc(/C=N/NC(=O)c2ccncc2)o1
- IC50 (cells): 1.18 µM (active)

SMILES: Cc1ccc(S(=O)(=O)N[C@H]2C=C[C@H](CC(=O)N3CCC(Cc4ccccc4)CC3)O[C@H]2CO)cc1
- AC50 [13]: 69.4 µM (active)
- AC50 [14]: 34.3 µM (active)
